Target: T1, OR2AT4 (Homo sapiens, UniProt A6NND4)
T1 construct: endogenous full-length receptor in primary human alveolar macrophages from bronchoalveolar lavage; estimated 34 kDa, blot signal about 40 kDa
T1 sequence (A6NND4 1-320): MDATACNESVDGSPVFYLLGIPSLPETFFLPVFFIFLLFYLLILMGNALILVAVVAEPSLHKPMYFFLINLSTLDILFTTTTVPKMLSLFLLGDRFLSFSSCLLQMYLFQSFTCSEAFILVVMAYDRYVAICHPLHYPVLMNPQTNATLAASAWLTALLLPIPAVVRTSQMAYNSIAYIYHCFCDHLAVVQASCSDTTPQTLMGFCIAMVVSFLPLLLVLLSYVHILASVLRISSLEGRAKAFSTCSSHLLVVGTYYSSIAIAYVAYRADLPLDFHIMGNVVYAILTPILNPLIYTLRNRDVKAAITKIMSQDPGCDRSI
Assay: Fura-2 single-cell calcium imaging, primary human alveolar macrophages
Type: cell-based
Settings: agonist; endogenous receptor in native cells; Ringer solution

EC50: 190 µM
SMILES: CC1=CCC(CCC(C)C(C)O)C1(C)C (stereo not shown) [Sandalore]

Reference: paper PMC9743598, “OR2AT4 and OR1A2 counterregulate molecular pathophysiological processes of steroid-resistant inflammatory lung diseases in human alveolar macrophages” (Molecular Medicine, 2022)
